From US7893090B2, “N-aroyl cyclic amine derivatives as orexin receptor antagonists” (SmithKline Beecham Limited, priority 2001, dated 2011)

Assays:
[1] = Rat sleep/EEG studies after central administration; type: in vivo; details: central administration at the onset of the normal sleep period; at the expense of paradoxical sleep and slow wave sleep 2
Description: Therefore antagonists of its receptor may be useful in the treatment of sleep disorders including insomnia.

[2] = central administration, freely-feeding rats, 4 hour time period; cited from earlier work

## orexin-A: ligand for the orexin-1 receptor, an agonist of the orexin receptors; 33-residue peptide, SEQ ID NO:1 (EPLPDCCRQKTCSCRLYELLHGAGNHAAGILTLNH; Homo sapien)
[1]
  arousal in rat sleep/EEG: dose-related increase in arousal
[2]
  increase in food intake over control rats receiving vehicle: approximately four-fold
